pIC50: −log10 of the molar value.
Experiment: Electrophysiology Assay: Patch clamp electrophysiology was used to assess the efficacy and selectivity of sodium channel blockers in dorsal root ganglion neurons. Rat neurons were isolated from the dorsal root ganglions and maintained in culture for 2 to 10 days in the presence of NGF (50 ng/ml) (culture media consisted of NeurobasalA supplemented with B27, glutamine and antibiotics). Small diameter neurons (nociceptors, 8-12 μm in diameter) were visually identified and probed with fine tip glass electrodes connected to an amplifier (Axon Instruments). The “voltage clamp” mode was used to assess the compound's IC50 holding the cells at −60 mV. In addition, the “current clamp” mode was employed to test the efficacy of the compounds in blocking action potential generation in response to current injections.

SMILES | pIC50
Cc1cc(F)ccc1Oc1cc(C(F)(F)F)ccc1C(=O)Nc1ccn(CCl)c(=O)c1 | 7.55
COc1cc(NC(=O)c2ccc(C(F)(F)F)cc2F)ccn1 | 7.36

Source: ChEMBL document CHEMBL5727988, “Prodrugs of pyridone amides useful as modulators of sodium channels” (2020)
